Tests used:
[1] = system: Long Evans and Sprague Dawley rats; experiment: Chemotherapy-induced alopecia (CIA) in the neonatal rat, topical calcitriol formulation; type: in vivo
Chemical stability = type: physicochemical
C57BL/6 mice = settings: cited from earlier work
[2] = system: MCF-7 (breast cancer with p53 mutation); experiment: Cell growth / viability assay, MCF-7; type: cell-based
Protocol: The drug treatment period was usually three days. At the end of the three days, the background OD of the 96-well plate was read at 280 nm, before 20 μL of the “Substrate Cell Titer 96 Aqueous One Solution Reagent” (Promega) was added to each well. The plate was returned to the 37° C. incubator, and its OD at 490 nm was read each hour until an OD of approximately 1.5 was reached. The net OD increase was calculated by subtracting the pre-substrate OD reading.
The impact of the drug on the cells was calculated by comparing the OD at different concentrations in relation to the OD of the control wells (without the drug).
Then these pretreated cells were utilized to set up the cell based assay.

HEKa cells = experiment: Antibody microarray (Panorama XP725) of calcitriol-treated HEKa cells; type: cell-based, human; settings: 24-hour
Protocol: Briefly, the treated HEKa cells were first harvested and then extracted to obtain a soluble protein supernatant. Two portions of the extracted protein sample (˜1 mg total) from each sample (at 1 mg/mL) were each labeled with fluorescent dye (Cy3 and Cy5, respectively). The excess dye was removed from the protein sample, and the resulting labeled protein samples were used for microarray incubation. To determine the expression level of a particular target protein at a later time point (e.g., at hour 6 or 24) relative to that at an earlier time point (e.g., at hour 3), the samples were labeled by different labels (e.g., 3-hour extract labeled with Cy3, 6-hour or 24-hour extract labeled with Cy5). Then the two labeled samples containing equal amounts of total protein were mixed (e.g., Cy3-labeled 3-hour sample is mixed with Cy5-labeled 6-hour or 24-hour samples, respectively). After incubation with the microarray chip (according to manufactures recommended protocols), the chips were washed and dried. The microarrays were then scanned with a fluorescent laser scanner to measure the relative fluorescence intensity of the Cy3 and Cy5 dyes. If the amount of a particular type of target protein increased (or decreased) over time, more (or less) of the dye associated with the later time point (e.g., Cy5) will be retained by the microarray. […]

C=C1/C(=C\C=C2/CCC[C@]3(C)[C@@H]([C@H](C)CCCC(C)(C)O)CC[C@@H]23)C[C@@H](O)C[C@@H]1O [Calcitriol, (5Z,7E)-9,10-secocholesta-5,7.10(19Hriene-1 a,33.25-triol]
protection from cytarabine-induced alopecia [1]: protective effect
Chemical Stability (Chemical stability): Stable at room temperature
follicular apoptosis induced by cyclophosphamide (C57BL/6 mice; C57BL/6 mice, topical): significantly diminish the degree of follicular apoptosis
prevention of cyclophosphamide-induced alopecia (C57BL/6 mice; female C57BL/6 adolescent mice): failed to demonstrate efficacy
regrowth of pigmented hair shafts (C57BL/6 mice; female C57BL/6 adolescent mice): significantly accelerated, enhanced, and quantitatively improved
effect of calcitriol on the cytotoxic effect of Doxorubicin ([2]; MCF-7): did not appear to appreciably alter
response to doxorubicin, cisplatin and erlotinib after calcitriol exposure ([2]; MCF-7, 0.1 μg/mL calcitriol for two passages): did not alter
proteins significantly upregulated (number) (HEKa cells): about fifty proteins
